Measured values reported in patent US20240174618A1, “SUBSTITUTED (2-HETEROARYLOXYPHENYL)SULFONATES, SALTS THEREOF AND THEIR USE AS HERBICIDAL AGENTS” (Bayer Aktiengesellschaft, priority 2021, published 2024).

Tests used:
Format in all cases: in vivo
Setaria viridis (SETVI) = assay: B. Herbicidal post-emergence efficacy, SETVI
Summary of the method: (§1)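 Weeds grown in sandy loam in greenhouse pots, sprayed at one-leaf stage (2–3 weeks after sowing) with WP or EC formulations as aqueous suspension/emulsion plus 0.5% additive at 600 L/ha water, rates up to 1280 g/ha. Visual efficacy rated about 3 weeks later versus untreated controls (0% = like control, 100% = dead).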

[1] = system: Amaranthus retroflexus (AMARE); assay: E. Herbicidal post-emergence efficacy, AMARE
Summary of the method: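 Greenhouse post-emergence spray, one-leaf stage (2–3 wk after sowing, sandy loam); WP/EC formulation, aqueous + 0.5% additive, 600 l/ha water; rates 320 g/ha or less. Visual rating ~3 wk later vs untreated; 0% = control-like, 100% = dead.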

[2] = system: Abutilon theophrasti (ABUTH); assay: C. Herbicidal pre-emergence efficacy, ABUTH; details: scored after about 3 weeks
Summary of the method: (§2)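 Pre-emergence test: formulated compounds sprayed as aqueous suspension or emulsion with 0.5% additive at 600 l/ha onto soil covering sown seeds, at rates corresponding to 320 g/ha or less. After about 3 weeks in greenhouse, efficacy scored visually as percent versus untreated controls (100% = plants dead).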

Stellaria media (STEME) = assay: A. Herbicidal pre-emergence efficacy, STEME
Summary of the method: (§3)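 Pre-emergence soil-surface spray in sandy loam pots, WP/EC in water plus 0.5% additive, 600 L/ha. Visual % damage rating after about 3 weeks in greenhouse vs. untreated; 0% = control-like, 100% = dead plants. Rates up to 1280 g/ha.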

[3] = system: Alopecurus myosuroides (ALOMY); assay: A. Herbicidal pre-emergence efficacy, ALOMY; details: scored visually after about 3 weeks vs untreated controls
Summary of the method: as §3

[4] = system: Echinochloa crus-galli (ECHCG); assay: A. Herbicidal pre-emergence efficacy, ECHCG; details: scored visually after about 3 weeks vs untreated controls
Summary of the method: as §3

[5] = system: Polygonum convolvulus (POLCO); assay: C. Herbicidal pre-emergence efficacy, POLCO; details: scored after about 3 weeks
Summary of the method: as §2

Kochia scoparia (KCHSC) = assay: B. Herbicidal post-emergence efficacy, KCHSC; details: for Post-emergence efficacy against KCHSC in %: rated visually after about 3 weeks; for Post-emergence efficacy against KCHSC: 1280 g/ha
Summary of the method: as §1

Structure (SMILES)	Post-emergence efficacy against SETVI (Setaria viridis (SETVI); 320 g/ha) [%]	Post-emergence efficacy against SETVI (Setaria viridis (SETVI); 1280 g/ha) [%]	Post-emergence efficacy against AMARE in % ([1]; application rate 80 g/ha) [%]	Post-emergence efficacy against AMARE in % ([1]; application rate 320 g/ha) [%]	Pre-emergence efficacy against ABUTH ([2]; 80 g/ha) [%]	Pre-emergence efficacy against ABUTH ([2]; 320 g/ha) [%]	Pre-emergence efficacy against STEME (Stellaria media (STEME); dosage 80 g/ha) [%]	Pre-emergence efficacy against STEME (Stellaria media (STEME); dosage 320 g/ha) [%]	Pre-emergence efficacy against STEME (Stellaria media (STEME); dosage 1280 g/ha) [%]	Pre-emergence efficacy against ALOMY ([3]; 320 g/ha) [%]	Pre-emergence efficacy against ALOMY ([3]; 1280 g/ha) [%]	Pre-emergence efficacy against ECHCG ([4]; 80 g/ha) [%]	Pre-emergence efficacy against ECHCG ([4]; 320 g/ha) [%]	Pre-emergence efficacy against ECHCG ([4]; 1280 g/ha) [%]	Pre-emergence efficacy against POLCO ([5]; 80 g/ha) [%]	Pre-emergence efficacy against POLCO ([5]; 320 g/ha) [%]	Post-emergence efficacy against KCHSC in % (Kochia scoparia (KCHSC); 80 g/ha) [%]	Post-emergence efficacy against KCHSC in % (Kochia scoparia (KCHSC); 320 g/ha) [%]	Post-emergence efficacy against KCHSC (Kochia scoparia (KCHSC)) [%]
O=S(=O)(CCCC(F)F)Oc1c(F)cccc1Oc1ncc(Cl)cn1 [Example I-56]	90	90	100	100	100	100	100	100	100	90	100	100	100	100	100	100	90	90	90
O=S(=O)(CCCC(F)(F)C(F)(F)F)Oc1c(F)cccc1Oc1ncc(Cl)cn1 [Example I-68]	90	90	90	100	100	100	–	100	100	–	90	–	90	100	90	90	100	100	100
Cc1cccc(Oc2ncc(Cl)cn2)c1OS(=O)(=O)CC1CC(F)(F)C1 [Example I-74]	–	100	90	100	–	90	–	90	100	–	90	–	90	100	–	90	90	100	100
